{"source": "ChEMBL document CHEMBL5375995", "about": "“Discovery and Mechanistic Study of Novel Mycobacterium tuberculosis ClpP1P2 Inhibitors” (J Med Chem, 2023)", "key": {"ClpP1P2 [1]": {"target": "T1, ClpP1P2 (Mycobacterium tuberculosis (strain ATCC 25618 / H37Rv), UniProt P9WPC3+P9WPC5)", "T1 sequence (P9WPC5 whole entry, the tested form may be a part)": "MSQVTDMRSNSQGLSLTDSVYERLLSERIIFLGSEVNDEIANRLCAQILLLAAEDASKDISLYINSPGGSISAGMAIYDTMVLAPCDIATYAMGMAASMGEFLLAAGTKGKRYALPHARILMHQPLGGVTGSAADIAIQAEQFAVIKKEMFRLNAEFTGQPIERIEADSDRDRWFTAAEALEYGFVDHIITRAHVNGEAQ", "T1 sequence (P9WPC3 whole entry, the tested form may be a part)": "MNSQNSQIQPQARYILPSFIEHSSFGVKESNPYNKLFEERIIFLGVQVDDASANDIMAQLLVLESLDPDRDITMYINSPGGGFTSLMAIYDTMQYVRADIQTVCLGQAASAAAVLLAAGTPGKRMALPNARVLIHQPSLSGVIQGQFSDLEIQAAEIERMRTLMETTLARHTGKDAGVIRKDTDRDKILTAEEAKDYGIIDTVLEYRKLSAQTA", "experiment": "Inhibition of N-terminal His6-SUMO-tagged Mtb ClpP1 (7 to 200 residues)/ClpP2 (13 to 214 residues) complex expressed in Escherichia coli BL21(DE3) using Z-Gly-Gly-Leu-AMC as substrate measured for 60 mins in presence of Bz-LL by fluorescence based assay"}, "ClpP1P2 [2]": {"target": "T1, ClpP1P2", "experiment": "Inhibition of N-terminal His6-SUMO-tagged Mtb ClpP1 (7 to 200 residues)/ClpP2 (13 to 214 residues) complex expressed in Escherichia coli BL21(DE3) using FITC-casein as substrate measured for 1 hr in presence of Bz-LL/ATP by fluorescence based assay"}, "[3]": {"target": "ATP-dependent Clp protease ATP-binding subunit ClpC1 (Mycobacterium tuberculosis) (UniProt P9WPC9)", "sequence (P9WPC9 whole entry)": "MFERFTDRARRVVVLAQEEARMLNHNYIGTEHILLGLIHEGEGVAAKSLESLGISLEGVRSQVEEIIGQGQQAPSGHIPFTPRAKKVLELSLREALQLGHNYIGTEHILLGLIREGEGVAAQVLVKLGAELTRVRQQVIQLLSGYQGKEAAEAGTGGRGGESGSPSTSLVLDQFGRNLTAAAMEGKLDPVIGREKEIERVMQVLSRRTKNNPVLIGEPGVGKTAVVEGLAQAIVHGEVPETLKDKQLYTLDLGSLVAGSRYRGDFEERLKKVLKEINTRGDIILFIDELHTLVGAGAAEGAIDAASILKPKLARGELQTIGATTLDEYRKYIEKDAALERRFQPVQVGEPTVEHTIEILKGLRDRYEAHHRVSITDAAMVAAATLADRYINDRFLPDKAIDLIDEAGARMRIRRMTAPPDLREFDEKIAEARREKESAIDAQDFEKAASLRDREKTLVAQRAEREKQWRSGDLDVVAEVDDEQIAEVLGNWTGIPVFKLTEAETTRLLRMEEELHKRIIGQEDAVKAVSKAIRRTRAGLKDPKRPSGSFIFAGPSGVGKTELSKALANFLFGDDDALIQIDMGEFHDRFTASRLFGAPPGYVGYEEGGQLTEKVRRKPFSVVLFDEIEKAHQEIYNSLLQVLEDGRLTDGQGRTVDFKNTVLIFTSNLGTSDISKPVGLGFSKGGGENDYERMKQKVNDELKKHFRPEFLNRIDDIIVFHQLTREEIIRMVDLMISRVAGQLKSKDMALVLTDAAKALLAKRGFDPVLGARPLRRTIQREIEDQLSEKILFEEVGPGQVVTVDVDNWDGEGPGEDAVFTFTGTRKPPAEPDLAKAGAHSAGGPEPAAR", "experiment": "Inhibition of N-terminal His6-tagged full-length Mtb ClpC1 ATPase activity expressed in Escherichia coli BL21(DE3) at 100 uM in presence of PK/LDH/ATP/NADH by spectrophotometry"}, "[4]": {"target": "ATP-dependent Clp protease ATP-binding subunit ClpC1 (Mycobacterium tuberculosis) (UniProt P9WPC9)", "experiment": "Inhibition of N-terminal His6-tagged full-length Mtb ClpC1 creatine kinase activity expressed in Escherichia coli BL21(DE3) using creatine phosphate as substrate at 100 uM preincubated for 10 mins followed by substrate addition measured after 10 mins in presence of ADP by Kinase-Glo assay", "conditions": "time 20.0 min"}, "ClpP1P2 [5]": {"target": "T1, ClpP1P2", "experiment": "Binding affinity to N-terminal His6-SUMO-tagged Mtb ClpP1 (7 to 200 residues)/ClpP2 (13 to 214 residues) complex expressed in Escherichia coli BL21(DE3) assessed as increase in thermal stability measured at 25 to 110 degreeC in presence of Bz-LL by DSF assay"}, "[6]": {"system": "Mycobacterium tuberculosis", "experiment": "Antibacterial activity against Mycobacterium tuberculosis H37Ra assessed as bacterial growth inhibition incubated for 24 hrs by broth microdilution method", "format": "functional"}, "[7]": {"system": "Mycolicibacterium smegmatis", "experiment": "Antibacterial activity against wild-type Mycobacterium smegmatis mc2 155 assessed as bacterial growth inhibition incubated for 2 days by Alamar blue staining based assay", "format": "functional", "conditions": "mc2 155, 48 h, time 2 day"}, "[8]": {"target": "T2, ClpP1P2 (Mycobacterium tuberculosis (strain ATCC 25618 / H37Rv)) (UniProt P9WPC5+P9WPC3)", "experiment": "Inhibition of N-terminal His6-SUMO-tagged Mtb ClpP1 (7 to 200 residues)/ClpP2 (13 to 214 residues) complex expressed in Escherichia coli BL21(DE3) using GFP-ssrA as substrate measured for 1 hr in presence of Bz-LL/ATP by fluorescence based assay"}, "ClpP1P2 [9]": {"target": "T1, ClpP1P2", "experiment": "Inhibition of N-terminal His6-SUMO-tagged Mtb ClpP1 (7 to 200 residues)/ClpP2 (13 to 214 residues) complex expressed in Escherichia coli BL21(DE3) using GFP-ssrA as substrate incubated for 3 hrs in presence of Bz-LL/ATP by Coomassie blue staining based assay"}, "[10]": {"experiment": "Inhibition of Staphylococcus aureus […] complex expressed in Escherichia coli BL21(DE3) using GFP-ssrA as substrate incubated for 3 hrs in presence of Bz-LL/ATP/ONC212 by Coomassie blue staining based assay"}, "[11]": {"experiment": "(§1) Selectivity index, ratio of IC50 for full-length human ClpP complex ([…]) expressed in Escherichia coli BL21(DE3) using Ac-WLA-AMC as substrate to IC50 for N-terminal His6-SUMO-tagged Mtb ClpP1 (7 to 200 residues)/ClpP2 (13 to 214 residues) complex expressed in Escherichia coli BL21(DE3) using Z-Gly-Gly-Leu-AMC as substrate"}, "[12]": {"experiment": "as §1, with “FITC-casein” for “Ac-WLA-AMC”"}, "[13]": {"target": "T2, ClpP1P2 (Mycobacterium tuberculosis (strain ATCC 25618 / H37Rv))", "experiment": "Binding affinity to N-terminal His6-SUMO-tagged Mtb ClpP1 (7 to 200 residues) expressed in Escherichia coli BL21(DE3) assessed as reduction in fluorescence intensity at 25 to 100 uM incubated for 30 mins in presence of Bz-LL by spectrophotometry relative to control", "design": "scale not given: the % may be the effect or the level left", "conditions": "dose 25-100 µM"}, "[14]": {"system": "Mycobacterium tuberculosis", "experiment": "Binding affinity to N-terminal His6-SUMO-tagged Mtb ClpP1 (7 to 200 residues)/ClpP2 (13 to 214 residues) complex expressed in Escherichia coli BL21(DE3) assessed as reduction in fluorescence intensity at 25 to 100 uM incubated for 30 mins in presence of Bz-LL by spectrophotometry relative to control", "design": "scale not given: the % may be the effect or the level left", "conditions": "dose 25-100 µM"}, "[15]": {"experiment": "Inhibition of N-terminal His6-SUMO-tagged Mycobacterium smegmatis ClpP1 (3 to 200 residues)/P2 (17 to 218 residues) expressed in Escherichia coli BL21(DE3) using Z-Gly-Gly-Leu-AM as substrate measured for 60 mins in presence of Bz-LL by fluorescence based assay", "design": "species or system Mycolicibacterium smegmatis"}, "[16]": {"experiment": "Inhibition of N-terminal His6-SUMO-tagged Mycobacterium smegmatis ClpP1 (3 to 200 residues)/P2 (17 to 218 residues) expressed in Escherichia coli BL21(DE3)/C1 using Z-Gly-Gly-Leu-AM as substrate measured for 60 mins in presence of Bz-LL by fluorescence based assay", "design": "species or system Mycolicibacterium smegmatis"}, "[17]": {"system": "Mycolicibacterium smegmatis", "experiment": "Antibacterial activity against Mycobacterium smegmatis mc2 155 harboring ClpX knockout assessed as bacterial growth inhibition incubated for 2 days by Alamar blue staining based assay", "format": "functional", "conditions": "mc2 155, 48 h, time 2 day"}, "[18]": {"system": "Mycolicibacterium smegmatis", "experiment": "Antibacterial activity against Mycobacterium smegmatis mc2 155 harboring ClpC1 knockout assessed as bacterial growth inhibition incubated for 2 days by Alamar blue staining based assay", "format": "functional", "conditions": "mc2 155, 48 h, time 2 day"}, "[19]": {"system": "Mycolicibacterium smegmatis", "experiment": "Antibacterial activity against wild-type Mycobacterium smegmatis mc2 155 assessed as bacterial growth inhibition upto 512 uM incubated for 2 days in presence of ATc by Alamar blue staining based assay", "format": "functional, organism-based", "conditions": "time 2.0 day"}, "[20]": {"system": "Mycolicibacterium smegmatis", "experiment": "Antibacterial activity against wild-type Mycobacterium smegmatis mc2 155 harboring ClpP-tetoff mutant assessed as bacterial growth inhibition upto 512 uM incubated for 2 days in presence of ATc by Alamar blue staining based assay", "format": "functional, organism-based", "conditions": "time 2.0 day"}}, "note": "Calls of active or inactive are those of the source. The rule behind the calls is not given here."}
{"compound": "COc1cc2c(Oc3ccc4[nH]c(C)cc4c3F)ncnc2cc1OCCCN1CCC(c2ccc(C(N)=O)cc2)CC1", "values": [{"measurement": "IC50", "setting": "ClpP1P2 [1]", "value": 2.6, "unit": "µM"}, {"measurement": "IC50", "setting": "ClpP1P2 [2]", "value": 8.9, "unit": "µM"}, {"measurement": "inhibition", "setting": "[3]", "value": "inactive"}, {"measurement": "inhibition", "setting": "[4]", "value": "inactive"}, {"measurement": "EC50", "setting": "ClpP1P2 [5]", "value": 12.1, "unit": "µM"}, {"measurement": "MIC", "setting": "[6]", "value": 12.5, "unit": "µM"}, {"measurement": "MIC", "setting": "[7]", "value": "> 439", "unit": "µg/mL"}, {"measurement": "inhibition", "setting": "[8]", "value": "Active"}, {"measurement": "IC50", "setting": "ClpP1P2 [9]", "value": "> 100", "unit": "µM"}, {"measurement": "IC50", "setting": "[10]", "value": 193, "unit": "µM"}, {"measurement": "Ratio IC50", "setting": "[11]", "value": 12.1}, {"measurement": "Ratio IC50", "setting": "[12]", "value": 18.4}, {"measurement": "Activity", "setting": "[13]", "value": 10, "unit": "%"}, {"measurement": "Activity", "setting": "[14]", "value": 60, "unit": "%"}, {"measurement": "IC50", "setting": "[15]", "value": 1.8, "unit": "µM"}, {"measurement": "IC50", "setting": "[16]", "value": 22.1, "unit": "µM"}, {"measurement": "MIC", "setting": "[17]", "value": 85.7, "unit": "µg/mL"}, {"measurement": "MIC", "setting": "[18]", "value": 42.8, "unit": "µg/mL"}, {"measurement": "growth inhibition (GI)", "setting": "[19]", "value": "Active"}, {"measurement": "growth inhibition (GI)", "setting": "[20]", "value": "Active"}]}
